# Measurements from PMC5298035 (Clinical Pharmacology in Drug Development, 2016).
# Where two headings read alike, the source gives them in different places.
# How the values were obtained:
# [1] = test system: CYP3A4; details: cited from earlier work
# [2] = test system: CYP3A4; details: cited from earlier work; remark: listed apart in the source
# [3] = Phase 1 rifampin interaction study: plasma PK of isavuconazole; assay type: in vivo, human
# [4] = Safety; assay type: in vivo, human; details: midazolam study, by treatment period
# [5] = test system: CYP3A7; details: CYP3A7-expressing human liver microsomes; ref data on file; cited from earlier work
# [6] = Safety; assay type: in vivo, human; details: ethinyl estradiol/norethindrone study, by treatment period
# [7] = test system: CYP4A11; details: pooled human liver microsomes; ref data on file; cited from earlier work
# [8] = test system: CYP2C8; details: cultured human hepatocytes; ref data on file; cited from earlier work
# [9] = active drug released from prodrug; cited from earlier work
# [10] = molecular target: T1, CYP3A4 (Homo sapiens, UniProt P08684); details: CYP3A4-expressing human liver microsomes; ref data on file; cited from earlier work
# [11] = test system: CYP2C9; details: pooled human liver microsomes; ref data on file; cited from earlier work
# [12] = cited from earlier work
# [13] = molecular target: T1, CYP3A4; experiment: Clinical CYP3A4 drug-drug interaction classification; assay type: in vivo
# [14] = test system: CYP2C19; details: pooled human liver microsomes; ref data on file; cited from earlier work
# [15] = active drug released from prodrug; cited from earlier work; remark: listed apart in the source
# [16] = test system: CYP2B6; details: CYP2B6-expressing human liver microsomes; ref data on file; cited from earlier work
# [17] = assay type: in vivo, human
# [18] = test system: CYP2B6; details: cultured human hepatocytes; ref data on file; cited from earlier work
# [19] = test system: CYP2D6; details: pooled human liver microsomes; ref data on file; cited from earlier work
# [20] = Phase 1 ethinyl estradiol/norethindrone interaction study: plasma PK; assay type: in vivo, human; details: for AUCτ: n = 23, arithmetic mean (SD)
# [21] = test system: CYP2C9; details: cultured human hepatocytes; ref data on file; cited from earlier work
# [22] = molecular target: T1, CYP3A4; details: cultured human hepatocytes; ref data on file; cited from earlier work
# [23] = test system: CYP2C19; details: cultured human hepatocytes; ref data on file; cited from earlier work
# [24] = Safety; assay type: in vivo, human; details: ketoconazole study, by treatment period
# [25] = test system: CYP3A5; details: CYP3A5-expressing human liver microsomes; ref data on file; cited from earlier work
# [26] = test system: CYP2C9; details: in vitro; ref unpublished data; cited from earlier work
# [27] = test system: CYP2A6; details: pooled human liver microsomes; ref data on file; cited from earlier work
# [28] = test system: P-glycoprotein; details: in vitro; ref unpublished data; cited from earlier work
# [29] = test system: CYP1A2; details: pooled human liver microsomes; ref data on file; cited from earlier work
# [30] = Safety; assay type: in vivo, human; details: rifampin study, by treatment period
# [31] = test system: CYP2B6; details: in vitro; ref unpublished data; cited from earlier work
# [32] = test system: CYP2E1; details: pooled human liver microsomes; ref data on file; cited from earlier work
# [33] = assay type: in vivo, human; remark: listed apart in the source
# [34] = coadministration with lopinavir/ritonavir; cited from earlier work
# [35] = test system: CYP1A2; details: cultured human hepatocytes; ref data on file; cited from earlier work
# [36] = test system: CYP2C8; details: CYP2C8-expressing human liver microsomes; ref data on file; cited from earlier work
# [37] = coadministration with rifampin 600 mg QD vs isavuconazole alone
# [38] = isavuconazole + rifampin vs isavuconazole alone, (90% CI)
# [39] = both, human, plasma, po, 200 mg
# [40] = isavuconazole + ketoconazole vs isavuconazole alone, (90% CI)
# [41] = presence vs absence of ketoconazole 200 mg BID
# T1 sequence (P08684 whole entry): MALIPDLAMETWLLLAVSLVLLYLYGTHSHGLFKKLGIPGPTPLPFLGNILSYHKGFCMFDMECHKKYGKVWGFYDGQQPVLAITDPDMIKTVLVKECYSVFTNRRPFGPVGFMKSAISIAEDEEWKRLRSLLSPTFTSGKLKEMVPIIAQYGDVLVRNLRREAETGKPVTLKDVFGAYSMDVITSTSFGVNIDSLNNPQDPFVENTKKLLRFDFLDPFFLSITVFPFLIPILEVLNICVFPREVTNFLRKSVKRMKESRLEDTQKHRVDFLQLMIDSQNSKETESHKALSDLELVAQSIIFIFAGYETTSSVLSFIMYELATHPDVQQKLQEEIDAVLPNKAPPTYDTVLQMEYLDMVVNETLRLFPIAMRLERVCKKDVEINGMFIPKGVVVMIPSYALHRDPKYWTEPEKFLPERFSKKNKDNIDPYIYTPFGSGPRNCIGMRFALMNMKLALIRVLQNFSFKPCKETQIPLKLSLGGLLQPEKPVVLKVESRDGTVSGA
smiles,measurement,setting,value
C[C@@H](c1ncncc1F)[C@](O)(Cn1cncn1)c1ccc(F)cc1F [voriconazole],increases in ethinyl estradiol and norethindrone on coadministration,[1],less than 2 fold
same,increase in midazolam AUC on coadministration,[2],approximately 10 fold
"C[C@@H](c1nc(-c2ccc(C#N)cc2)cs1)[C@](O)(Cn1cncn1)c1cc(F)ccc1F [Isavuconazole, isavuconazole]",decrease in mean AUC0-∞,[3]; [37],97%
same,decrease in mean AUClast,[3]; [37],97%
same,decrease in mean AUCτ,[3]; [37],90%
same,decrease in mean Cmax,[3]; [37],75%
same,"Geometric least-squares mean ratio, AUC0-∞",[3]; [38],"3 (2, 3) %"
same,"Geometric least-squares mean ratio, AUClast",[3]; [38],"3 (3, 3) %"
same,"Geometric least-squares mean ratio, AUCτ",[3]; [38],"10 (9, 11) %"
same,"Geometric least-squares mean ratio, Cmax",[3]; [38],"25 (23, 27) %"
same,Tmax,"[3]; male, human, plasma, po",2 h
same,subjects who experienced TEAEs,[4],10 n
same,subjects with drug-related TEAEs,[4],5 n
same,ratio of the remaining isavuconazole,[5],> 98%
same,subjects who experienced TEAEs,[6],6 n
same,subjects with drug-related TEAEs,[6],3 subjects
same,correlation of isavuconazole metabolism with CYP4A11 activity,[7],No correlations
same,maximum increase in CYP2C8 mRNA,[8],4.3 fold
same,maximum increase in amodiaquine N-dealkylase activity (CYP2C8),[8],2.6 fold
same,permeability (in words),[9],highly permeable
same,ratio of the remaining isavuconazole,[10],33.8%
same,correlation of isavuconazole metabolism with CYP2C9 activity,[11],No correlations
same,Oral bioavailability,[12],98%
same,food or pH effect on absorption,[12],no evidence of a clinically relevant food or pH effect
same,classification as inhibitor of CYP3A4,"[13]; from midazolam coadministration in healthy adults, in vivo",moderate inhibitor
same,classification as substrate of CYP3A4,[13]; from rifampin and ketoconazole coadministration in healthy adults,sensitive substrate
same,correlation of isavuconazole metabolism with CYP2C19 activity,[14],No correlations
same,solubility (in words),[15],poorly soluble
same,ratio of the remaining isavuconazole,[16],> 98%
same,AUC(0-inf),[17]; [39],84800 ng·h/mL
same,AUC(0-t),[17]; [39],64900 ng·h/mL
same,Cmax,[17]; [39],2200 ng/mL
same,Tmax,[17]; [39],2 h
same,half-life,[17]; [39],117 h
same,CL/F,"[17]; isavuconazole 200 mg single oral dose alone, n = 12, arithmetic mean (SD)",2.5 (0.6) L/h
same,"Geometric least-squares mean ratio, AUC0-∞",[17]; [40],"522 (409, 666) %"
same,"Geometric least-squares mean ratio, AUClast",[17]; [40],"373 (319, 435) %"
same,"Geometric least-squares mean ratio, Cmax",[17]; [40],"109 (93, 127) %"
same,increase in mean AUC0-∞,[17]; [41],422%
same,increase in mean AUClast,[17]; [41],273%
same,increase in mean Cmax,[17]; [41],9%
same,maximum increase in CYP2B6 mRNA,[18],11.4 fold
same,maximum increase in bupropion hydroxylase activity (CYP2B6),[18],13.4 fold
same,correlation of isavuconazole metabolism with CYP2D6 activity,[19],No correlations
same,Cmax,"[20]; female, human, plasma, oral, 200 mg",5800 ng/mL
same,AUCτ,"[20]; isavuconazole 200 mg QD + ethinyl estradiol 35 μg/norethindrone 1 mg, day 13",81.4 (19.0) h·μg/mL
same,AUCτ,"[20]; isavuconazole 200 mg QD alone, day 12",80.8 (18.7) h·μg/mL
same,maximum increase in CYP2C9 mRNA,[21],3.1 fold
same,maximum increase in diclofenac 4'-hydroxylase activity (CYP2C9),[21],none
same,increase in CYP3A4 mRNA,[22],≤ 6.4 fold
same,increase in testosterone hydroxylation activity (CYP3A4),[22],up to 3.4 fold
same,increase in CYP2C19 mRNA levels,[23],No isavuconazole‐induced increases
same,increase in S-(+)-mephenytoin 4'-hydroxylation activity (CYP2C19),[23],No isavuconazole‐induced increases
same,subjects reporting TEAEs,[24],2 (16.7%) subjects
same,ratio of the remaining isavuconazole,[25],68.4%
same,substrate of CYP2C9,[26],not a substrate
same,correlation of isavuconazole metabolism with CYP2A6 activity,[27],No correlations
same,substrate of P-glycoprotein,[28],not a substrate
same,correlation of isavuconazole metabolism with CYP1A2 activity,[29],No correlations
same,subjects who experienced TEAEs,[30],19 n
same,subjects with drug-related TEAEs,[30],17 n
same,substrate of CYP2B6,[31],not a substrate
same,correlation of isavuconazole metabolism with CYP2E1 activity,[32],No correlations
same,Cmax,"[33]; both, human, plasma, oral, 200 mg",5200 ng/mL
same,mean AUCτ in the presence vs absence of midazolam (in words),[33]; isavuconazole 200 mg QD,comparable
same,mean Cmax in the presence vs absence of midazolam (in words),[33]; isavuconazole 200 mg QD,comparable
same,increase in isavuconazole exposure,[34],approximately 2 fold
same,maximum increase in CYP1A2 mRNA,[35],5.4 fold
same,maximum increase in phenacetin O-dealkylase activity (CYP1A2),[35],2.8 fold
same,ratio of the remaining isavuconazole,[36],> 98%
